Legend:
[1] = system: C57BL/6 mice with MOG35-55-induced EAE; assay: EAE induced by active immunization with MOG35-55/CFA, clinical scoring and CNS histology; type: in vivo, mouse
Method: In addition, administration of a selective DGAT1 inhibitor attenuated MOG35-55-induced EAE. C57BL/6 mice (8 weeks old) were induced to develop EAE by active immunization with MOG35-55/CFA. Twelve days after disease induction (indicated by the arrow), mice were administered vehicle (10% Captisol) or 10 mg/kg DGAT1 inhibitor A922500 once daily via s.c. injection and followed for clinical disease (n=10/group). Clinical data are presented as the mean score ±SEM. The scoring system is as follows: 0, normal or healthy; 1, limp tail; 2, hindlimb weakness; 3, hindlimb paralysis; 4, hindlimb and forelimb paralysis. *P<0.05 (days 14-30) by Mann-Whitney U test.
EAE models. For EAE induction by active immunization, mice (8-10 weeks old) were immunized via subcutaneous (s.c.) injection with 100 μg MOG35-55 emulsified in CFA as described. Mice also received 250 ng pertussis toxin (List Biological Labs) via tail vein injection at the time of MOG35-55/CFA immunization and again 2 days later. Clinical disease was scored as follows: 0=normal or healthy; 1=flaccid tail; 2=hindlimb weakness; 3=hindlimb paralysis; 4=hindlimb and forelimb paralysis; 5=moribund or dead. Where indicated, A922500 was formulated in 10% Captisol vehicle for in vivo dosing via s.c. injection (100 μl volume). Individuals who conducted the clinical scoring were blinded to the treatment that the mice received.
Histology. Brain and spinal cord tissues were fixed in 10% buffered formalin. Paraffin-embedded tissues were then stained with H&E, and CNS inflammatory foci (>10 mononuclear cells/focus) in leptomeninges and parenchyma were counted in each mouse sample in a blinded fashion.
Statistics. The Mann-Whitney U test was applied to analyze nonparametric clinical EAE data, and the Student's t test was used to analyze all parametric data. The Fisher's exact test was used to compare disease incidence.

C57BL/6 mice = assay: Tolerability observations in treated mice (behavior, leukocytes, organ wet weights and gross morphology); type: in vivo, mouse; conditions: mice induced to develop EAE, treated from day 12 p.i.
Text: To address this possibility, we first determined whether pharmacological inhibition of DGAT1 could modulate clinical EAE. […] Suppression of clinical disease was evident as early as 2 days after dosing began and persisted until termination of the experiment at day 30 p.i. (FIG. 3a). Overall, the compound delayed onset of clinical signs by an average of 6 days and reduced disease incidence at day 30 p.i. by 30%. […] Thus, administration of a selective DGAT1 inhibitor attenuates EAE.

WT CD4+CD25− cells = assay: In vitro T regulatory cell induction, WT T cells; type: cell-based, mouse
Method: (§1) FIG. 7. DGAT1 limits retinoic acid-dependent Treg induction. WT or DGAT1 KO CD4+CD25− cells were incubated with T cell-depleted DGAT1 KO MLN cells in delipidated serum in the absence or presence of: soluble anti-CD3; TGFβ; retinol (ROL; 10 nM); A922500 (100 nM); or AM580 (10 nM) where indicated. After 3 days, TCRβ+ lymphocytes in the live gate were analyzed for expression of CD4 and Foxp3 by flow cytometry. (a) Representative FACS plots show the frequency of WT (top panels) or DGAT1 KO (bottom panels) CD4+Foxp3+ Tregs within the gate. (b) FACS data are summarized in bar graph form. Bars depict the mean+SEM of triplicate wells. Two independent experiments were performed.
(§2) This acyl-CoA:retinol acyltransferase (ARAT) function enables DGAT1 to convert retinol (vitamin A) to its storage retinyl ester form. RA, the active metabolite of vitamin A, supports Treg induction; however, T lymphocytes cannot synthesize RA autonomously. We hypothesized that T cell-expressed DGAT1 functions as an ARAT, diverting retinol to its storage ester form. This would lead to a reduction in levels of RA locally. Conversely, DGAT1 deficiency would prevent this sequestration of retinol, leading to elevated RA and Treg induction. […]

[2] = daily 10 mg/kg; models of obesity; cited from earlier work
DGAT1 KO CD4+CD25− cells = assay: In vitro T regulatory cell induction, DGAT1 KO T cells; type: cell-based, mouse; conditions: retinol 10 nM; anti-CD3/TGFβ, DGAT1 KO MLN cells, delipidated serum, 3 days
Method: as §1, §2

[3] = 30 days after EAE induction, mean (SEM), 10 mg/kg s.c. once daily from day 12

O=C(Nc1ccccc1)Nc1ccc(-c2ccc(C(=O)[C@@H]3CCC[C@H]3C(=O)O)cc2)cc1 [A922500]
Time after start of dosing at which suppression of clinical disease was evident ([1]; 10 mg/kg daily from day 12 p.i., persisted until day 30 p.i.): 2 days
Mean maximal score (SEM) ([1]; 10 mg/kg s.c. once daily from day 12 p.i., clinical score 0-5): 1.4 (0.4)^ns
Mean day of onset (SEM) ([1]; 10 mg/kg s.c. once daily from day 12 p.i., only animals that developed EAE): 20.1 (1.9)* day
No. of CNS inflammatory foci, Meninges [1, 3]: 19.8 (8.8)
No. of CNS inflammatory foci, Parenchyma [1, 3]: 29.9 (12.4)
Delay of onset of clinical signs ([1]; average, versus vehicle, 10 mg/kg daily from day 12 p.i.): 6 days
Effect on clinical EAE ([1]; daily 10 mg/kg, P<0.05 days 14-30 p.i. by Mann-Whitney U test): attenuated EAE
Reduction of disease incidence at day 30 p.i. ([1]; versus vehicle, 10 mg/kg daily from day 12 p.i.): 30%
Leukocyte numbers or composition within peripheral lymphoid tissues (C57BL/6 mice): did not induce overt behavioral changes or significantly alter leukocyte numbers or composition within peripheral lymphoid tissues
Organ toxicity (wet weights and gross morphology of several organs incl. spleen and thymus) (C57BL/6 mice): did not cause detectable organ toxicity
Overt behavioral changes (C57BL/6 mice): did not induce overt behavioral changes
Difference between DGAT1−/− and WT Treg induction responses to retinol (WT CD4+CD25− cells; A922500 100 nM with retinol 10 nM, anti-CD3/TGFβ, 3 days): abrogated the difference between DGAT1−/− and WT cell responses
Serum TG levels [2]: significantly reduces serum TG levels

CC1(C)CCC(C)(C)c2cc(C(=O)Nc3ccc(C(=O)O)cc3)ccc21 [AM580]
Treg induction by RAR agonist (WT CD4+CD25− cells; AM580 10 nM, WT and DGAT1 KO cells, DGAT1 deficiency had no significant effect): enhanced Treg induction

CC1=C(/C=C/C(C)=C/C=C/C(C)=C/CO)C(C)(C)CCC1 [retinol, All-trans-retinol]
Foxp3+ Treg induction (DGAT1 KO CD4+CD25− cells): significantly enhanced

— patent US10226470B2, “DGAT1 inhibition for treatment of demyelinating inflammatory disease” (The Board of Trustees of the Leland Stanford Junior …, priority 2014, dated 2019)
